The text below walks through data of patent US12281102B2, “Inhibitors of APOL1 and methods of using same” (Vertex Pharmaceuticals Incorporated, priority 2020, dated 2025).

Bounds are passed on as bounds.

The target of the first assay is T1, G1 APOL1 (Homo sapiens, UniProt O14791, I384M/S342G).
T1 construct: expressed in transfected cells
T1 sequence (O14791 28-398 S342G/I384M): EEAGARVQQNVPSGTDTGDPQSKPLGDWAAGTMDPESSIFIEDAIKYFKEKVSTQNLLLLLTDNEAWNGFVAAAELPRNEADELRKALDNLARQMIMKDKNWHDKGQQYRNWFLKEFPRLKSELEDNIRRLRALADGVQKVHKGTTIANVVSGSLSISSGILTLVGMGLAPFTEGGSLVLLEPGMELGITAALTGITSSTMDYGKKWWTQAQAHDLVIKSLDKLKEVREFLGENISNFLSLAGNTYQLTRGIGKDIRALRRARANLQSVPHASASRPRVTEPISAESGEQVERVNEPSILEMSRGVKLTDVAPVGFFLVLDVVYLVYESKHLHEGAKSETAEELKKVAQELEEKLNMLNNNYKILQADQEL
In words: Acute APOL1 Thallium Assay with inducible stable clones of HEK 293 cells. It is filed as cell-based. Particulars: HEK 293 T-Rex inducible stable clone expressing G1 APOL1; read-out: Thallium Assay (IC50). Summed up: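 A tetracycline-inducible HEK293 T-Rex clone (G1 DC3.25) expressing G1 APOL1 was plated at 26,000 cells/well, with tetracycline added at plating to induce expression. Cells were loaded with an AM-ester thallium-sensitive dye and stimulated with Tl+. Pore activity was read as the FLIPR Tetra fluorescence increase from Tl+ influx.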
Take `CC(C)(C)OC(=O)N[C@@H](C(=O)NC[C@H]1C[C@H](c2c(-c3ccc(F)cc3)[nH]c3c(F)cc(F)cc32)C1)C1CC1` [Compound 277]: the IC50 is over 1000 nM.
Regarding `Cn1ccc(CC(=O)NC[C@H]2C[C@@H](c3c(-c4ccc(F)cc4)[nH]c4c(F)cc(F)cc43)C2)n1` [Compound 278], the IC50 is over 1000 nM.
The same measure, in the same setting: to `NS(=O)(=O)CCCC(=O)NC[C@H]1C[C@@H](c2c(-c3ccc(F)cc3)[nH]c3c(F)cc(F)cc32)C1` [Compound 280] belongs over 1000 nM; to `O=C(NC[C@H]1C[C@H](c2c(-c3ccc(F)cc3)[nH]c3c(F)cc(F)cc32)C1)[C@H]1CCCN1` [Compound 282], over 1000 nM; to `O=C(NC[C@H]1C[C@H](c2c(-c3ccc(F)cc3)[nH]c3c(F)cc(F)cc32)C1)C1(O)CC1` [Compound 283], over 1000 nM.
`CC1(C(=O)NC[C@H]2C[C@@H](c3c(-c4ccc(F)cc4)[nH]c4c(F)cc(F)cc43)C2)CC(=O)C1` [Compound 284]: the IC50 was over 1000 nM.
Turning to `O=C(CC1CC(=O)NC(=O)C1)NC[C@H]1C[C@@H](c2c(-c3ccc(F)cc3)[nH]c3c(F)cc(F)cc32)C1` [Compound 285], the IC50 was over 1000 nM.
The same measure, in the same setting: to `CC(C)(C)OC(=O)NC1(C(=O)NC[C@H]2C[C@H](c3c(-c4ccc(F)cc4)[nH]c4c(F)cc(F)cc43)C2)CCC1` [Compound 286] belongs over 1000 nM.
Consider `O=C1CC(C(=O)NC[C@H]2C[C@H](c3c(-c4ccc(F)cc4)[nH]c4c(F)cc(F)cc43)C2)C(=O)N1` (stereo partly drawn) [Compound 287], for which the IC50 is over 1000 nM.
As for `O=C(NC[C@H]1C[C@H](c2c(-c3ccc(F)cc3)[nH]c3c(F)cc(F)cc32)C1)c1ccncn1` [Compound 288], the IC50 was over 1000 nM.
Regarding `C[C@@]1(C(=O)NC[C@H]2C[C@H](c3c(-c4ccc(F)cc4)[nH]c4c(F)cc(F)cc43)C2)CCCN1` [Compound 289], the IC50 is over 1000 nM.
Still for that read-out and setting: next, `O=C(NC[C@H]1C[C@H](c2c(-c3ccc(F)cc3)[nH]c3c(F)cc(F)cc32)C1)c1n[nH]c(=O)[nH]1` [Compound 290]: over 1000 nM; `O=C1CC(C(=O)NC[C@H]2C[C@@H](c3c(-c4ccc(F)cc4)[nH]c4c(F)cc(F)cc43)C2)CC(=O)N1` [Compound 291]: over 1000 nM.
The same measure, in the same setting: next, `O=C(NC[C@H]1C[C@H](c2c(-c3ccc(F)cc3)[nH]c3c(F)cc(F)cc32)C1)c1ccn[nH]1` [Compound 292]: over 1000 nM.
Consider `O=C(CCN1CCCCC1)NC[C@H]1C[C@@H](c2c(-c3ccc(F)cc3)[nH]c3c(F)cc(F)cc32)C1` [Compound 293], for which the concentration for half-maximal inhibition (IC50) was over 1000 nM.
`O=C1CC(C(=O)NC[C@H]2C[C@@H](c3c(-c4ccc(F)cc4)[nH]c4c(F)cc(F)cc43)C2)CN1` (stereo partly drawn) [Compound 294]: the IC50 was over 1000 nM.
Same read-out and setting: next, `C[C@@H](NC(=O)OC(C)(C)C)C(=O)NC[C@H]1C[C@H](c2c(-c3ccc(F)cc3)[nH]c3c(F)cc(F)cc32)C1` [Compound 295]: over 1000 nM; `O=C(CCN1CCCC1)NC[C@H]1C[C@@H](c2c(-c3ccc(F)cc3)[nH]c3c(F)cc(F)cc32)C1` [Compound 296]: over 1000 nM.
For the molecule `O=C(NC[C@H]1C[C@H](c2c(-c3ccc(F)cc3)[nH]c3c(F)cc(F)cc32)C1)c1cccnn1` [Compound 297], the half-inhibitory concentration (IC50) was over 1000 nM.
Same read-out and setting: next, `O=C(NC[C@H]1C[C@H](c2c(-c3ccc(F)cc3)[nH]c3c(F)cc(F)cc32)C1)c1cn[nH]c1` [Compound 298]: over 1000 nM; `CC(C(=O)NC[C@H]1C[C@@H](c2c(-c3ccc(F)cc3)[nH]c3c(F)cc(F)cc32)C1)n1ccnc1` (stereo partly drawn) [Compound 299]: over 1000 nM.
The same measure, in the same setting: to `O=C(CC(=O)N1CCOCC1)NC[C@H]1C[C@@H](c2c(-c3ccc(F)cc3)[nH]c3c(F)cc(F)cc32)C1` [Compound 300] belongs over 1000 nM.
The same measure, in the same setting: to `CC(C)C(O)C(=O)NC[C@H]1C[C@@H](c2c(-c3ccc(F)cc3)[nH]c3c(F)cc(F)cc32)C1` (stereo partly drawn) [Compound 301] belongs over 1000 nM.
On to `O=C(NC[C@H]1C[C@@H](c2c(-c3ccc(F)cc3)[nH]c3c(F)cc(F)cc32)C1)c1nc[nH]n1` [Compound 302], for which the half-maximal inhibitory concentration (IC50) was over 1000 nM.
Same read-out and setting: next, `O=C1NCCC1C(=O)NC[C@H]1C[C@@H](c2c(-c3ccc(F)cc3)[nH]c3c(F)cc(F)cc32)C1` (stereo partly drawn) [Compound 303]: over 1000 nM; `O=C(NC[C@H]1C[C@H](c2c(-c3ccc(F)cc3)[nH]c3c(F)cc(F)cc32)C1)c1ccc(=O)[nH]c1` [Compound 304]: over 1000 nM.
On the same count and under the same terms, next, `CN(CC(=O)NC[C@H]1C[C@@H](c2c(-c3ccc(F)cc3)[nH]c3c(F)cc(F)cc32)C1)S(C)(=O)=O` [Compound 305]: over 1000 nM; `O=C(Cn1cnnc1)NC[C@H]1C[C@@H](c2c(-c3ccc(F)cc3)[nH]c3c(F)cc(F)cc32)C1` [Compound 307]: over 1000 nM; `CS(=O)(=O)CCCC(=O)NC[C@H]1C[C@@H](c2c(-c3ccc(F)cc3)[nH]c3c(F)cc(F)cc32)C1` [Compound 308]: over 1000 nM.
On the same count and under the same terms, to `O=C(NC[C@H]1C[C@@H](c2c(-c3ccc(F)cc3)[nH]c3c(F)cc(F)cc32)C1)c1cnn[nH]1` [Compound 309] belongs over 1000 nM; to `CC(C)(C)OC(=O)NC1(C(=O)NC[C@H]2C[C@H](c3c(-c4ccc(F)cc4)[nH]c4c(F)cc(F)cc43)C2)COC1` [Compound 311], over 1000 nM; to `O=C(NC[C@H]1C[C@H](c2c(-c3ccc(F)cc3)[nH]c3c(F)cc(F)cc32)C1)c1ccn[nH]c1=O` [Compound 312], over 1000 nM.
`O=C(CC1CC(F)(F)C1)NC[C@H]1C[C@@H](c2c(-c3ccc(F)cc3)[nH]c3c(F)cc(F)cc32)C1` [Compound 313]: the IC50 is over 1000 nM.
On the same count and under the same terms, to `O=C(NC[C@H]1C[C@H](c2c(-c3ccc(F)cc3)[nH]c3c(F)cc(F)cc32)C1)c1ccc[nH]1` [Compound 314] belongs over 1000 nM; to `CN1CCCC(CC(=O)NC[C@H]2C[C@@H](c3c(-c4ccc(F)cc4)[nH]c4c(F)cc(F)cc43)C2)C1` (stereo partly drawn) [Compound 315], over 1000 nM; to `O=C(CC1(O)CCCCC1)NC[C@H]1C[C@@H](c2c(-c3ccc(F)cc3)[nH]c3c(F)cc(F)cc32)C1` [Compound 316], over 1000 nM.
On the same count and under the same terms, next, `O=C(NC[C@H]1C[C@@H](c2c(-c3ccc(F)cc3)[nH]c3c(F)cc(F)cc32)C1)c1cn[nH]c1` [Compound 317]: over 1000 nM; `O=C(CC1COC1)NC[C@H]1C[C@@H](c2c(-c3ccc(F)cc3)[nH]c3c(F)cc(F)cc32)C1` [Compound 319]: over 1000 nM; `CN(C)CC(=O)NC[C@H]1C[C@@H](c2c(-c3ccc(F)cc3)[nH]c3c(F)cc(F)cc32)C1` [Compound 320]: over 1000 nM.
Consider `Cc1nccn1CC(=O)NC[C@H]1C[C@@H](c2c(-c3ccc(F)cc3)[nH]c3c(F)cc(F)cc32)C1` [Compound 321], for which the IC50 is over 1000 nM.
As to `Cn1nccc1CC(=O)NC[C@H]1C[C@@H](c2c(-c3ccc(F)cc3)[nH]c3c(F)cc(F)cc32)C1` [Compound 322], the IC50 was over 1000 nM.
Same read-out and setting: to `O=C(CC1CCCOC1)NC[C@H]1C[C@@H](c2c(-c3ccc(F)cc3)[nH]c3c(F)cc(F)cc32)C1` (stereo partly drawn) [Compound 323] belongs over 1000 nM; to `COC1(CC(=O)NC[C@H]2C[C@@H](c3c(-c4ccc(F)cc4)[nH]c4c(F)cc(F)cc43)C2)CCC1` [Compound 324], over 1000 nM.
Still for that read-out and setting: next, `O=C(CC1CCOCC1)NC[C@H]1C[C@@H](c2c(-c3ccc(F)cc3)[nH]c3c(F)cc(F)cc32)C1` [Compound 325]: over 1000 nM; `O=C(CCN1CCCC1=O)NC[C@H]1C[C@@H](c2c(-c3ccc(F)cc3)[nH]c3c(F)cc(F)cc32)C1` [Compound 326]: over 1000 nM.
Same read-out and setting: to `O=C(CN1CCCC1)NC[C@H]1C[C@@H](c2c(-c3ccc(F)cc3)[nH]c3c(F)cc(F)cc32)C1` [Compound 327] belongs over 1000 nM; to `O=C1CCC(C(=O)NC[C@H]2C[C@@H](c3c(-c4ccc(F)cc4)[nH]c4c(F)cc(F)cc43)C2)CN1` (stereo partly drawn) [Compound 328], over 1000 nM.
Regarding `Nc1nonc1C(=O)NC[C@H]1C[C@H](c2c(-c3ccc(F)cc3)[nH]c3c(F)cc(F)cc32)C1` [Compound 329], the IC50 was over 1000 nM.
Regarding `O=C(NC[C@H]1C[C@H](c2c(-c3ccc(F)cc3)[nH]c3c(F)cc(F)cc32)C1)c1ccc[nH]c1=O` [Compound 330], the IC50 was over 1000 nM.
Still for that read-out and setting: to `CC[C@@H](NC(=O)OC(C)(C)C)C(=O)NC[C@H]1C[C@H](c2c(-c3ccc(F)cc3)[nH]c3c(F)cc(F)cc32)C1` [Compound 331] belongs over 1000 nM.
Take `O=C1NCC[C@H]1NS(=O)(=O)NC[C@H]1C[C@H](c2c(-c3ccc(F)cc3)[nH]c3c(F)cc(F)cc32)C1` [Compound 332, (3R)-3-[[3-[5,7-difluoro-2-(4-fluorophenyl)-1H-indol-3-yl]cyclobutyl]methylsulfamoylamino]pyrrolidin-2-one]: the IC50 was over 1000 nM.
On the same count and under the same terms, next, `O=S(=O)(NCCN1CCC(O)C1)NC[C@H]1C[C@H](c2c(-c3ccc(F)cc3)[nH]c3c(F)cc(F)cc32)C1` (stereo partly drawn) [Compound 333]: over 1000 nM.

Staying with this assay, now noted: Thallium Assay (IC50), HEK 293 T-Rex inducible stable clone expressing G1 APOL1.
Molecule `CC(C)(C)OC(=O)N1CCC[C@@H]1C(=O)NC[C@H]1C[C@H](c2c(-c3ccc(F)cc3)[nH]c3c(F)cc(F)cc32)C1` [Compound 279] had a concentration for half-maximal inhibition (IC50) of over 1000 nM.
Same read-out and setting: next, `CC(C)(C)OC(=O)N1CC[C@@H]1C(=O)NC[C@H]1C[C@H](c2c(-c3ccc(F)cc3)[nH]c3c(F)cc(F)cc32)C1` [Compound 310]: over 1000 nM.

The IC50 is the midpoint of a concentration-inhibition curve.
